# Results from patent publication US10731159B2, “Cationic lipid” (DAIICHI SANKYO COMPANY, LIMITED, priority 2013, dated 2020).
# Legend:
# [1] = Rate of encapsulation of polynucleotide/mRNA (Quant-iT RiboGreen, with and without Triton X-100); type: physicochemical
# Experimental: The rate of encapsulation of the double-stranded polynucleotide was measured using Quant-iT RiboGreen RNA Assay kit (Invitrogen Corp.) according to the attached document.
# (§1) Specifically, the double-stranded polynucleotide in the nucleic acid lipid particle dispersion was quantified in the presence and absence of a 0.015% Triton X-100 detergent, and the rate of encapsulation was calculated according to the following expression: {[Amount of the double-stranded polynucleotide in the presence of the detergent]−[Amount of the double-stranded polynucleotide in the absence of the detergent]}/[Amount of the double-stranded polynucleotide in the presence of the detergent]}×100(%) (3) Ratio of Double-Stranded Polynucleotide to Lipid
# The rate of encapsulation of the mRNA was measured using Quant-iT RiboGreen RNA Assay kit (Invitrogen Corp.) according to the attached document.
# as §1, with “mRNA” for “double-stranded polynucleotide”, “mRNA” for “Double-Stranded Polynucleotide”
# human β-catenin gene [2] = experiment: Test Example 8: β-catenin gene expression inhibition in SW480 cells, procedures of Test Example 3, 50-0.05 nM; type: cell-based; conditions: for inhibitory activity against β-catenin gene expression (in words): compared with particle containing lipid of Reference Example 2; for IC50: procedures of Test Example 3, 50, 5, 0.5, 0.05 nM, particles of Example 55, read-out: β-catenin gene expression inhibitory activity IC50
# Experimental: (§2) The concentration of a human colorectal cancer SW480 cell line (derived from human colorectal adenocarcinoma) was adjusted to 50000 cells/mL in a RPMI1640 medium (manufactured by Invitrogen Corp.) containing 10% fetal bovine serum (culture medium). Then, the resulting culture solution was inoculated at 100 μL/well to a 96-well flat-bottomed plate (manufactured by Corning Inc./Falcon) and cultured at 37° C. for 1 day under 5.0% CO2. The nucleic acid lipid particle-containing dispersion prepared in Example 31 was diluted with a culture medium to prepare dilution series having final double-stranded polynucleotide concentrations of 30, 3, 0.3, and 0.03 nM in the medium. Then, each dilution was added to the cells after removal of the culture supernatant, and the culture was further continued for 4 hours. This operation was performed at N=3 for each concentration.
# (§3) A lysate and cDNA for real-time PCR measurement were prepared from the transfected cells using TaqMan® Fast-Cells-to-Ct kit (Life Technologies, Inc./Ambion) according to the instruction manual. In the lysate preparation, Lysis Solution supplemented with DNase I was used. The probes for real-time PCR used were TaqMan® Gene Expression Assays (CTNNB1, FAM probe) (Hs00355045_m1, manufactured by Applied Biosystems, Inc.) for the human β-catenin gene and a human GAPDH gene probe as an internal standard (VIC probe, Hs99999905_m1, manufactured by Applied Biosystems, Inc.). 5 μL of TaqMan® Fast Advanced Master Mix, 2 μL of RNase-Free Water, 0.5 μL of each gene probe, and 2 μL of the prepared cDNA solution were added per well of a 384-well PCR plate (manufactured by Applied Biosystems, Inc.) to bring the total amount to 10 μL, which was then loaded in ViiA™ 7 Real-time PCR system (manufactured by Applied Biosystems, Inc.) and subjected to PCR under conditions given below. The real-time PCR was carried out at N=4 for the cDNA prepared from the lysate.
# (§4) The quantitative analysis was conducted by the ΔΔCt method.
# By the same procedures as in Test Example 3, SW480 cells were treated with 50 nM, 5 nM, 0.5 nM, and 0.05 nM each of nucleic acid lipid particles each prepared using a novel lipid, and the strength of human β-catenin gene expression inhibitory activity was compared among these particles.
# [3] = Average particle size of nucleic acid lipid particle (NICOMP 380ZLS); type: physicochemical
# Experimental: The particle size of the liposome was measured using Zeta Potential/Particle Sizer NICOMP™ 380ZLS (Particle Sizing Systems, LLC). In the tables, the average particle size is indicated by a volume-average particle size, and the numeric value following ±represents a deviation.
# [4] = Ratio of polynucleotide/mRNA to lipid (wt/wt); type: physicochemical
# Experimental: The nucleic acid lipid particle dispersion was mixed with acetonitrile and chloroform at a ratio of 1:1:1 and centrifuged at 15,000 rpm for 2 minutes. Then, the aqueous layer obtained as an upper layer was recovered, followed by the extraction of the double-stranded polynucleotide. The amount of the double-stranded polynucleotide in the sample was measured by ion-exchange chromatography (system: Agilent 1100 series, column: TSKgel DEAE-2SW (2.6×150 mm) (Tosoh Corp), buffer A: 20% acetonitrile, buffer B: 20% acetonitrile and 1.6 M ammonium formate, gradient (B %): 30-55% (0-20 min), flow rate: 1 mL/min, temperature: 40° C., detection: 260 nm).
# The amount of the phospholipid in the nucleic acid lipid particle dispersion was measured using Phospholipid C-Test Wako (Wako Pure Chemical Industries Ltd.) according to the attached document. Specifically, the phospholipid in the sample was quantified in the presence of a 1% Triton X-100 detergent.
# (§5) The amounts of cholesterol and LP in the nucleic acid lipid particle dispersion were measured by reverse-phase chromatography (system: Agilent 1100 series, column: Chromolith Performance RP-18 endcapped 100-3 monolithic HPLC-column (Merck), buffer A: 0.01% trifluoroacetic acid, buffer B: 0.01% trifluoroacetic acid and methanol, gradient (B %): 87-92% (0-10 min), flow rate: 2 mL/min, temperature: 50° C., detection: 205 nm).
# (§6) The total amount of lipids was calculated from the amount of the phospholipid and the compositional ratio of lipid components constituting the liposome, and the ratio of the polynucleotide to the lipid was calculated from the aforementioned amount of the polynucleotide and the total amount of lipids according to the following expression: [Double-stranded polynucleotide concentration]/[Total lipid concentration] (wt/wt)
# as §6, with “phospholipid, the amount of cholesterol, and the amount of LP,” for “phospholipid”
# The amount of the double-stranded polynucleotide in a sample from the nucleic acid lipid particle dispersion was measured in the presence of a 5% Triton X-100 detergent by ion-exchange chromatography (system: Agilent 1100 series, column: DNAPac PA200 (4×250 mm) (Thermo Fisher Scientific K.K.), buffer A: 10 mM Tris, 25 mM sodium perchlorate, and 20% ethanol, pH 7.0, buffer B: 10 mM Tris, 250 mM sodium perchlorate, and 20% ethanol, pH 7.0, gradient (B %): 20-70% (0-15 min), flow rate: 0.5 mL/min, temperature: 40° C., detection: 260 nm).
# as §5, with “82-92%” for “87-92%”
# The total amount of lipids was calculated from the amount of the phospholipid, the amount of cholesterol, and the amount of LP, and the compositional ratio of lipid components constituting the liposome, and the ratio of the mRNA to the lipid was calculated from the “amount of the mRNA in the presence of the detergent” of the preceding paragraph (2) according to the following expression: [mRNA concentration in the presence of the detergent]/[Total lipid concentration] (wt/wt)
# human β-catenin gene [5] = experiment: Test Example 1: β-catenin gene expression inhibition in SW480 cells, 3 days, real-time PCR; type: cell-based; conditions: for inhibitory activity against β-catenin gene expression (in words): compared with particle containing lipid of Reference Example 2; for IC50: nucleic acid lipid particle of Example 31 containing the named lipid, double-stranded polynucleotide concentration, read-out: β-catenin gene expression inhibitory activity IC50
# Experimental: (§7) As described below, the strength of human β-catenin gene expression inhibitory activity was compared among nucleic acid lipid particles each prepared using a novel lipid.
# as §2, with “to 50,000” for “to 50000”, “in an” for “in a”, “lipid particle” for “lipid particle-containing”, “30, 3.0,” for “30, 3,”, “for 3 days.” for “for 4 hours.”
# as §3
# (§8) PCR initial activation: 95° C. for 20 seconds
# (§9) PCR: 95° C. for 1 second • 62° C. for 20 seconds
# (§10) This PCR cycle was repetitively performed 40 times.
# as §4
# human β-catenin gene [6] = experiment: Test Example 2: β-catenin gene expression inhibition in HepG2 cells, 3 days, real-time PCR; type: cell-based; conditions: for inhibitory activity against β-catenin gene expression (in words): compared with particle containing lipid of Reference Example 2; for IC50: nucleic acid lipid particle of Example 31 containing the named lipid, read-out: β-catenin gene expression inhibitory activity IC50
# Experimental: as §7
# as §2, with “liver” for “colorectal”, “HepG2” for “SW480”, “liver cancer)” for “colorectal adenocarcinoma)”, “DMEM” for “RPMI1640”, “3 days.” for “4 hours.”
# as §3, §8, §9, §10, §4
# [7] = Example 55: particles prepared as in Example 31 (β-catenin double-stranded polynucleotide)
# [8] = Example 55: particles prepared as in Example 31, ± deviation
# [9] = Example 55: particles prepared as in Example 31
# [10] = particles of Example 31: DSPC:Chol:LP:PEG-C-DMA=20:48:30:2, CT-157/CT-169 double-stranded polynucleotide
# [11] = particles of Example 31, volume-average particle size ± deviation
# [12] = particles of Example 31, total lipids calculated from phospholipid amount and compositional ratio (Table 3)
Structure (SMILES),"Rate of polynucleotide encapsulation [1, 7] [%]",IC50 (human β-catenin gene [2]) [nM],"Average particle size [3, 8] [nm]","Ratio of polynucleotide to lipid siRNA/lipid [4, 9] [wt/wt]",inhibitory activity against β-catenin gene expression (in words) (human β-catenin gene [2]),"Rate of polynucleotide encapsulation [1, 10] [%]",inhibitory activity against β-catenin gene expression (in words) (human β-catenin gene [5]),IC50 (human β-catenin gene [5]) [nM],"Average particle size [3, 11] [nm]","Ratio of polynucleotide to lipid siRNA/lipid [4, 12] [wt/wt]",inhibitory activity against β-catenin gene expression (in words) (human β-catenin gene [6]),IC50 (human β-catenin gene [6]) [nM]
"CCCCC/C=C\C/C=C\CCCCCCCC(CCCCCCC/C=C\C/C=C\CCCCC)OC(=O)OCCCN(C)C [Example 2, 3-(Dimethylamino)propyl(6Z,9Z,26Z,29Z)-pentatriaconta-6,9,26,29-tetraen-18-yl Carbonate]",,,,,,96.3,strong inhibitory activity,6.8,215 ± 70,0.099,strong inhibitory activity,0.47
"CCCCC/C=C\C/C=C\CCCCCCCCC(CCCCCCCC/C=C\C/C=C\CCCCC)OC(=O)OCCCN(C)C [Example 1, 3-(Dimethylamino)propyl(6Z,9Z,28Z,31Z)-heptatriaconta-6,9,28,31-tetraen-19-yl Carbonate]",,,,,,94.3,strong inhibitory activity,3.5,183 ± 41,0.109,strong inhibitory activity,0.38
"CCCCC/C=C\C/C=C\CCCCCCCC(CCCCCCC/C=C\C/C=C\CCCCC)OC(=O)OCCCCN(C)C [Example 3, 4-(Dimethylamino)butyl(6Z,9Z,26Z,29Z)-pentatriaconta-6,9,26,29-tetraen-18-yl Carbonate]",,,,,,98.6,strong inhibitory activity,0.44,187 ± 31,0.099,strong inhibitory activity,0.35

# Now from value to compound, other results behind:
"Rate of polynucleotide encapsulation [1, 7] [%]",IC50 (human β-catenin gene [2]) [nM],"Average particle size [3, 8] [nm]","Ratio of polynucleotide to lipid siRNA/lipid [4, 9] [wt/wt]",Structure (SMILES),inhibitory activity against β-catenin gene expression (in words) (human β-catenin gene [2]),"Rate of polynucleotide encapsulation [1, 10] [%]",inhibitory activity against β-catenin gene expression (in words) (human β-catenin gene [5]),IC50 (human β-catenin gene [5]) [nM],"Average particle size [3, 11] [nm]","Ratio of polynucleotide to lipid siRNA/lipid [4, 12] [wt/wt]",inhibitory activity against β-catenin gene expression (in words) (human β-catenin gene [6]),IC50 (human β-catenin gene [6]) [nM]
97,2.6,158 ± 40,0.101,"CCCCCC[C@H](C/C=C\CCCCCCCC(CCCCCCC/C=C\C[C@@H](CCCCCC)OC(=O)CC)OC(=O)OCCCN(C)C)OC(=O)CC [Example 41, (7R,9Z,26Z,29R)-18-({[3-(Dimethylamino)propoxy]carbonyl}oxy)pentatriaconta-9,26-diene-7,29-diyl Dipropionate]",strong inhibitory activity,,,,,,,
97,6,188 ± 45,0.077,"CCCCCC[C@H](C/C=C\CCCCCCCCC(CCCCCCCC/C=C\C[C@@H](CCCCCC)OC(C)=O)OC(=O)OCCCN(C)C)OC(C)=O [Example 42, (7R,9Z,28Z,31R)-19-({[3-(Dimethylamino)propoxy]carbonyl}oxy)heptatriaconta-9,28-diene-7,31-diyl Diacetate]",strong inhibitory activity,,,,,,,
97,24,174 ± 31,0.075,"CCCCCCCCCCCCC(CCCCCCC/C=C\C[C@@H](CCCCCC)OC(C)=O)OC(=O)OCCCN(C)C (stereo partly drawn) [Example 43, (7R,9Z)-18-({[3-(Dimethylamino)propoxy]carbonyl}oxy)triacont-9-en-7-yl Acetate]",strong inhibitory activity,,,,,,,
